Results on 10 molecules are retold here after patent publication US10266558B2, “Macroheterocyclic nucleoside derivatives and their analogues, production and use thereof” (ASAVI, LLC, priority 2016, dated 2019).

The target of one series is T1, HCV NS5B RNA-polymerase (Hepatitis C virus genotype 1a, UniProt P27958).
T1 construct: HCV NS5B RNA-polymerase
The note with it: versus PSI-6206, Gemcitabine and 2′-C-Methylcytidine; cited from earlier work.

A further series has as its system HCV replicon. The conditions noted are these: cited from earlier work.
Series [1] has as its system lamivudine-entecavir resistant clone (L180M+M204V+S202G). The conditions noted are these: resistant mutant (L180M+M204V+S202G); cited from earlier work.
A further series has as its system HBV wild-type. The note with it: cited from earlier work.
The conditions of series [2]: in the clinic; cited from earlier work.
A short description of another series: physchem. The conditions noted are these: simulated gi fluid.
Series [3] in a line: Metabolic stability in human liver S9 fraction. The series is classed as in vitro ADME. The conditions noted are these: pH 7.4. The protocol:
The human liver S9 fraction metabolic stability in human liver microsomal fraction of Macroheterocyclic nucleoside derivative represented by formula 1 and 2 and Sovaldi. Stock solutions of test compounds and PSI-352707 (10 mM) were prepared in DMSO and stored at −20° C. 10-× standard solutions of PSI-352707 (10, 8, 5, 2 and 1 μM) were prepared by dilution stock solution with water-acetonitrile mixture (1/1, v/v). The reaction mixture was prepared in a total volume of 350.5 μL containing 0.1 M potassium phosphate buffer (pH 7.4), 1 mM NADPH, 7 mM G6P, 1.5 U/mL G6PDH, 3.3 mM MgCl2, 5 mM UDPGA, 122 μLdeionised water and 1 μM test compound. The reaction mixture was pre-incubated at 400 rpm, 37° C. The reaction was initiated by adding 1 mg/mL human liver S9 fraction to the reaction mixture and incubated at 400 rpm, 37° C. […]
ABSciex QTrap 5500 Source (TurboIonSpray) was operated in negative ionization mode (Source temperature 650° C., Source gas 1 and Source gas 2-65 and 40 psi respectively). PSI-352707 and IS (tolbutamide) were detected in MRM mode by transitions with m/z 410 to 150 for H027-4261 (collision energy […]) and 269/170 for tolbutamide (collision energy […]). […] Data analysis and quantitation was performed in Analyst 1.5.2 Software (AB Sciex).

Series [4] deals with xenografts models of human pancreatic cancer. The conditions noted are these: in vivo; cited from earlier work.

T1 sequence (P27958 2421-3011): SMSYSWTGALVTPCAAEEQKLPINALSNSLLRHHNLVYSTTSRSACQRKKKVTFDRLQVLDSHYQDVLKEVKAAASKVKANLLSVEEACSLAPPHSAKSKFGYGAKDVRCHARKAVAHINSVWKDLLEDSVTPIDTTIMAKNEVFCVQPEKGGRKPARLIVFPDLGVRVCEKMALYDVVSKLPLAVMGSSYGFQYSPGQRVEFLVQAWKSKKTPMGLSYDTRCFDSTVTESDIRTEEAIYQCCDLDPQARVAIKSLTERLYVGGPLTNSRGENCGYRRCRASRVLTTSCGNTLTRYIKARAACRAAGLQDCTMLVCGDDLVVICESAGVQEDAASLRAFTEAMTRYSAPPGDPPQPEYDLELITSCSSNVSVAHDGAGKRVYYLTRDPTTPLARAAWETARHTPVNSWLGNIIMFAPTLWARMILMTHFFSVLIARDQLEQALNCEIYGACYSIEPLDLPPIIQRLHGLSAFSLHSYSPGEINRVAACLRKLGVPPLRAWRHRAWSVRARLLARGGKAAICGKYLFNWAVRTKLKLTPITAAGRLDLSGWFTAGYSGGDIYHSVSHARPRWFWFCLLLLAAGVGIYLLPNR

Turning to `Nc1ccn([C@@H]2O[C@H](COP(=O)(N[C@H]3CCOC3=O)Oc3ccccc3)[C@@H](O)C2(F)F)c(=O)n1` (some centres unmarked) [AVI-4203], on HCV NS5B RNA-polymerase, the “inhibitory activity compared with the corresponding nucleoside” value was “by orders of magnitude higher”.
Turning to `COc1nc(N)nc2c1ncn2[C@@H]1O[C@H](COP(=O)(N[C@@H](C)C(=O)OC(C)C)Oc2ccccc2)[C@@H](O)[C@@]1(C)F` (some centres unmarked) [PSI-353661], in the series with HCV replicon (replicon assay), the EC90 was 8 nM and the “increase in potency compared to the guanosine analogue β-D-2′-deoxy-2′-R-fluoro-2′-β-C-methylguanosine” value is recorded as 1000 fold.
For “2′-Fluoro-6′-methylene-carbocyclic adenosine phosphoramidate [5′-phosphoramidate of FMCA]”, the EC50 in series [1] is 54 nM; in the series on HBV wild-type (HBV replication, wild-type), 620 nM. For the same molecule, the “more potent than FMCA” value in the series on HBV wild-type (against both the wild-type and resistant mutant) is 10 fold.
For the molecule `CC(C)(CO)C(=O)SCCOP(=O)(COC[C@H]1OC(n2cnc3c(=O)[nH]c(N)nc32)[C@](C)(O)[C@@H]1O)NCc1ccccc1` (some centres unmarked) [IDX-184], the EC50 with HCV replicon was 400 nM.
As for `CC(C)OC(=O)[C@H](C)NP(=O)(OC[C@H]1O[C@@H](n2ccc(N)nc2=O)C(F)(F)[C@@H]1O)Oc1ccccc1` (some centres unmarked) [AVI-4201], the “inhibitory activity compared with the corresponding nucleoside” value at HCV NS5B RNA-polymerase was “by orders of magnitude higher”.
In the case of `COc1nc(N)nc2c1ncn2[C@@H]1O[C@H](COP(=O)(N[C@@H](C)C(=O)OCC(C)(C)C)Oc2cccc3ccccc23)[C@@H](O)[C@@]1(C)O` (some centres unmarked) [INX-08189], in the series with HCV replicon, the EC50 is 10 nM. Besides, in series [2], the cardiovascular toxicity entry is “severe cardiovascular toxicity”.
In turn, `CC(C)OC(=O)[C@H](C)N[P@](=O)(OC[C@H]1O[C@@H](n2ccc(=O)[nH]c2=O)[C@](C)(F)[C@@H]1O)Oc1ccccc1` [Sovaldi®, sofosbuvir] had a half-life in the series “physchem” of 15 h. Moreover, the half-life at 1 μM in series [3] is greater than 1.8 h. Further, on HCV NS5B RNA-polymerase, the “inhibitory activity compared with the corresponding nucleoside” value is on record as “by orders of magnitude higher”.
Molecule `C[C@@H]1N[P@@](=O)(Oc2ccccc2)OC[C@H]2O[C@@H](n3ccc(=O)[nH]c3=O)[C@](C)(F)[C@@H]2OC(=O)CCCOC1=O` [1(13)] came in with a half-life in “physchem” greater than 24 h. The half-life at 1 μM in series [3] was greater than 12.4 h.
Take `CC(C)OC(=O)[C@H](C)NP(=O)(OC[C@H]1O[C@@H](n2ccc(NO)nc2=O)[C@](C)(O)[C@@H]1O)Oc1ccccc1` (some centres unmarked) [CC-1845]: the “inhibitory activity compared with the corresponding nucleoside” value at HCV NS5B RNA-polymerase is “by orders of magnitude higher”.
Consider `C[C@H](NP(=O)(OC[C@H]1O[C@@H](n2ccc(N)nc2=O)C(F)(F)[C@@H]1O)Oc1ccccc1)C(=O)OCc1ccccc1` (some centres unmarked) [NUC-1031, Gemcitabin-5′-phosphoramidate], for which, in series [4], the tumor volume result is “significantly reduced tumor volume”.

For orientation: EC90 means the concentration at which the effect reaches the 90% level. What is called EC50 is the midpoint of the concentration-response curve. As a reminder, the half-life is how long it takes for the measured level to halve. Lower therefore signals rapid decline.
